{"source": "patent US20260241013A1", "about": "“TARGETED PROTEIN DEGRADATION USING PRODRUGS OF BIFUNCTIONAL COMPOUNDS THAT BIND UBIQUITIN LIGASE AND A TARGET MCL-1 PROTEIN” (Captor Therapeutics S.A., priority 2022, published 2026)", "type_in_all_cases": "cell-based", "key": {"CRBN": {"molecular_target": "T1, CRBN (Homo sapiens, UniProt Q96SW2)", "T1 construct": "host or cells: HEK293 (NanoLuc CRBN HEK293 cells)", "T1 sequence (Q96SW2 whole entry)": "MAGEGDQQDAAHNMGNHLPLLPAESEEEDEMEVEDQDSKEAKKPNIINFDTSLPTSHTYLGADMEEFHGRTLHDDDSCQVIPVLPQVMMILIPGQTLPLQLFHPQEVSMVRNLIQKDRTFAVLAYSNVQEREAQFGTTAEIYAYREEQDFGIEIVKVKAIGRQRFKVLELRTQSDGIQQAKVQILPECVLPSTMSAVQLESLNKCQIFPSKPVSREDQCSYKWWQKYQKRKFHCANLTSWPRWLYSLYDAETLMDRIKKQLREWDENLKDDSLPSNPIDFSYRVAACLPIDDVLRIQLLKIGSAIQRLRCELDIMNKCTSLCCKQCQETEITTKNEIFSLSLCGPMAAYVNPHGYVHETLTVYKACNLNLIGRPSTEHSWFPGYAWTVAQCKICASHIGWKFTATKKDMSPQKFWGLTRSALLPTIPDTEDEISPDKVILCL", "assay": "NanoBRET In-cell CRBN Target Engagement Assay (live and lytic mode), NanoLuc CRBN HEK293 cells", "procedure": "Commercially available, NanoBRET In-cell CRBN Target Engagement Assay (NanoBRET CRBN TE Assay), which uses NanoLuc CRBN HEK293 cells and NanoBRET In-cell CRBN Tracer was used (N2910, N2912, PROMEGA) to determine the cell membrane permeability of prodrugs of MCL-1 degraders.\nThe assay was run in 96-well plate format (cat. 3600, Corning). NanoLuc CRBN HEK293 cells were treated with CRBN Tracer and compounds. Briefly, prepared was cell suspension (0.17×10^6cells/ml) in Opti-MEM without phenol red (Life Technologies). The cells were treated with CRBN Tracer (20× concentrated, 5 μl/well. For the live mode: 0.8 μM and for the lytic: 0.17 μM final concentration) or DMSO vehicle control (20× concentrated, 5 μl/well). Such prepared cells were seeded into the wells of 96-well plate on top of compounds (100× concentrated, 1 μl/well; 11-point 2-fold dilution) pre-plated on them with the help of Echo 555 acoustic dispenser (Labcyte). For the lytic mode assay, Digitonin (0.05 mg/ml, 10× concentrated, 10 μl/well) was added additionally. In the live mode assay, the plate was incubated at 37° C., 5% CO2 for 2 hours, and then at room temperature for 15 minutes to cool down. In the lytic mode assay, there was no incubation. The 3×Complete NanoBRET reagent (50 μl/well) was prepared according to the manufacturer's recommendations, appropriately for live and lytic mode. The plate was incubated for 2 minutes at room temperature and the luminescence and fluorescence readings followed using CLARIOstar Multimode Plate Reader (donor emission RLU—450 nm; acceptor emission RFU—610 nm). RBA value is an indicator of cell membrane permeability (the lower, the better) is calculated from absolute pIC50 (the negative log of the absolute IC50 value when converted to molar) of the live mode assay (pIC50 Live) and the lytic mode assay (pIC50 Lytic)."}, "[1]": {"assay": "Cell viability assay (CellTiter-Glo, CTG protocol), ARH-77", "details": "human, ARH-77 cells (lymphoblast-like), ARH-77 (MCL-1 independent line), 24 hours incubation, 1% FBS, read-out: Average pCC50 by molecule ARH-77 (converted)", "excerpt": "(§1) The effect of various compounds of the invention on the viability of MV4-11 and ARH-77 cell lines was investigated, using the CTG protocol described below.\n(§2) MV4-11 cell lines are derived from acute myeloid leukaemia and it is described in the literature as a MCL-1 dependent cell line, as opposed to lymphoblast-like ARH-77 cell line, which is described as independent of MCL-1 (Tron A E et al. Nat Commun. 2018; 9: 5341; Caenepeel S et al. Cancer Discov. 2018 December; 8(12): 1582-1597).\n(§3) Cells (MV4-11 or ARH-77) were seeded on […] in a growth medium with 1% FBS. Next, compound stocks were pre-diluted in DMSO and added directly to the cell culture media (final DMSO concentration: 0.5%). Compound concentrations used in this assay: 1/3 dilutions starting at 30 μM (9 to 12 points). After 24 hours of incubation, cell viability was evaluated using CellTiter-Gob® Luminescent Cell Viability Assay (Promega, cat #G7572). The luminescence signal was measured using a CLARIOstar Plus Multi-Mode Microplate Reader (574-590 nm).\n(§4) Results were normalized to DMSO control. Collected data were analyzed using GraphPad Prism to calculate pCC50 values (i.e. the negative log of the CC50 value). CC50 (50% cytotoxic concentration) is the effective concentration of a cytotoxic compound, which produces 50% of the maximum possible cell death (i.e. the concentration of the compound which is required in order to reduce cell viability by 50%). CC50 is often used rather than IC50 in cell toxicity assays."}, "MV4-11 cells": {"system": "MV4-11 cells", "assay": "Cell viability assay (CellTiter-Glo, CTG protocol), MV4-11", "details": "Homo sapiens, MV4-11 (MCL-1 dependent AML line), 24 hours incubation, 1% FBS, read-out: Average pCC50 by molecule MV4-11 (converted)", "excerpt": "as §1, §2, §3, §4"}, "MCL-1 protein": {"molecular_target": "T2, MCL-1 protein (Homo sapiens, UniProt Q07820)", "T2 construct": "endogenous in cells; host or cells: MV4-11", "T2 sequence (Q07820 whole entry)": "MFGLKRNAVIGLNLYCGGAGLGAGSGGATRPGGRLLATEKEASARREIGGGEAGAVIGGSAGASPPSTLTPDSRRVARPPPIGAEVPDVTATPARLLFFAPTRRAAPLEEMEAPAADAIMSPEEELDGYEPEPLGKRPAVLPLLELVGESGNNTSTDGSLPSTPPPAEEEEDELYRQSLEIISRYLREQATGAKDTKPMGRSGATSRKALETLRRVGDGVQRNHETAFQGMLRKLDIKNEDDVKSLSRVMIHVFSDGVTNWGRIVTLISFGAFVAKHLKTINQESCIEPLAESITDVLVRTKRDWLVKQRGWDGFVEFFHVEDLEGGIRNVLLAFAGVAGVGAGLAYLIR", "assay": "MCL-1 protein degradation in MV4-11 cells, Western blot", "details": "6 hours; for MCL-1 protein abundance: MV4-11, % of DMSO control; for MCL-1 protein degradation (Western blot, in words): MV4-11 cells", "procedure": "MV4-11 cells were maintained in IMDM medium, supplemented with penicillin/streptomycin and 10% Fetal Bovine Serum (FBS). MV4-11 cells were collected, centrifuged (250 rcf, 5 min), resuspended in a growth medium containing 10% FBS and counted. The cell suspension was then adjusted to 1×10^6 cells/ml using a growth medium containing 10% FBS. Afterwards, 0.5×10^6 cells were seeded on 24-well plates in 0.5 mL of medium per well. Immediately after seeding, cells were pre-treated for 30 minutes with DMSO or pan-caspase inhibitor—Q-VD-Oph. Next, compounds from stocks pre-diluted in DMSO were added directly to the cell culture medium in appropriate concentrations (the final DMSO concentration was 0.5%). Following the 6 hours treatment with the compounds, cells were collected from the plates and suspended in a lysis buffer (2% SDS, 50 mM Tris, pH 8.0, 100 U/ml Pierce Universal Nuclease for Cell Lysis, complete EDTA-free Protease Inhibitor Cocktail) and incubated on ice for 45 min. The amount of protein was determined via BCA assay, and an equal quantity of each sample was loaded on the precast gel for protein separation. After the antibody staining for MCL-1, α-tubulin, and cleaved forms of PARP and caspase 3, the membranes were washed and signals developed.\nDensitometric values for MCL-1 were normalized to total protein level (stain-free membrane). [%] of protein reduction is calculated in comparison to the cells treated with DMSO, which stand for 0%."}, "[2]": {"details": "live mode, intact cells, 2 hours at 37° C., read-out: pIC50 (live) (converted)"}, "[3]": {"details": "lytic mode, digitonin-lysed cells, no incubation, read-out: pIC50 (lytic) (converted)"}, "[4]": {"details": "1 nM, + Q-VD-Oph (pan-caspase inhibitor)"}, "[5]": {"details": "10 nM, + Q-VD-Oph (pan-caspase inhibitor)"}, "[6]": {"details": "100 nM, + Q-VD-Oph (pan-caspase inhibitor)"}}, "note": "Where two headings read alike, the source gives them in different places."}
{"smiles": "CC(=O)OCOC(=O)c1c(CCCOc2cccc3cc(F)ccc23)c2ccc(Cl)c(-c3c(C)nn(C)c3C)c2n1CCN1CCN(C(=O)COc2cccc3c2CN(C2CCC(=O)NC2=O)C3=O)CC1", "note": "(stereo not drawn) [Compound 41, Acetoxymethyl 6-chloro-1-(2-(4-(2-((2-(2,6-dioxopiperidin-3-yl)-1-oxoisoindolin-4-yl)oxy)acetyl)piperazin-1-yl)ethyl)-3-(3-((6-fluoronaphthalen-1-yl)oxy)propyl)-7-(1,3,5-trimethyl-1H-pyrazol-4-yl)-1H-indole-2-carboxylate]", "values": [{"measurement": "IC50", "setting": "CRBN; [2]", "result": 7.94, "unit": "nM"}, {"measurement": "IC50", "setting": "CRBN; [3]", "result": 501, "unit": "nM"}, {"measurement": "CC50 at 24 h", "setting": "[1]", "result": "> 10000", "unit": "nM"}, {"measurement": "CC50", "setting": "MV4-11 cells", "result": "< 1", "unit": "nM"}, {"measurement": "MCL-1 protein abundance", "setting": "MCL-1 protein; [4]", "result": "B (Amount of MCL-1 protein >25% and ≤50% calculated as % of DMSO control)"}, {"measurement": "MCL-1 protein abundance", "setting": "MCL-1 protein; [5]", "result": "A (Amount of MCL-1 protein ≤25% calculated as % of DMSO control)"}, {"measurement": "MCL-1 protein abundance", "setting": "MCL-1 protein; [6]", "result": "A (Amount of MCL-1 protein ≤25% calculated as % of DMSO control)"}, {"measurement": "MCL-1 protein degradation (Western blot, in words)", "setting": "MCL-1 protein; in the presence of apoptosis inhibitor", "result": "MCL-1 protein degradation"}]}
{"smiles": "Cc1nn(C)c(C)c1-c1c(Cl)ccc2c(CCCOc3cccc4cc(F)ccc34)c(C(=O)OCOC(=O)C(C)(C)C)n(CCN3CCN(C(=O)COc4cccc5c4CN(C4CCC(=O)NC4=O)C5=O)CC3)c12", "note": "(stereo not drawn) [Compound 69, (6-Chloro-1-{2-[4-(2-{[2-(2,6-dioxopiperidin-3-yl)-1-oxo-2,3-dihydro-1H-isoindol-4-yl]oxy}acetyl)piperazin-1-yl]ethyl}-3-{3-[(6-fluoronaphthalen-1-yl)oxy]propyl}-7-(1,3,5-trimethyl-1H-pyrazol-4-yl)-1H-indole-2-carbonyloxy)methyl 2,2-dimethylpropanoate]", "values": [{"measurement": "IC50", "setting": "CRBN; [2]", "result": 39.8, "unit": "nM"}, {"measurement": "IC50", "setting": "CRBN; [3]", "result": 6310, "unit": "nM"}, {"measurement": "CC50 at 24 h", "setting": "[1]", "result": "> 31600", "unit": "nM"}, {"measurement": "CC50", "setting": "MV4-11 cells", "result": "< 10", "unit": "nM"}, {"measurement": "MCL-1 protein abundance", "setting": "MCL-1 protein; [4]", "result": "C (Amount of MCL-1 protein >50% and <75% calculated as % of DMSO control)"}, {"measurement": "MCL-1 protein abundance", "setting": "MCL-1 protein; 1 nM, without Q-VD-Oph", "result": "C (Amount of MCL-1 protein >50% and <75% calculated as % of DMSO control)"}, {"measurement": "MCL-1 protein abundance", "setting": "MCL-1 protein; [5]", "result": "B (Amount of MCL-1 protein >25% and ≤50% calculated as % of DMSO control)"}, {"measurement": "MCL-1 protein abundance", "setting": "MCL-1 protein; 10 nM, without Q-VD-Oph", "result": "B (Amount of MCL-1 protein >25% and ≤50% calculated as % of DMSO control)"}, {"measurement": "MCL-1 protein abundance", "setting": "MCL-1 protein; [6]", "result": "B (Amount of MCL-1 protein >25% and ≤50% calculated as % of DMSO control)"}, {"measurement": "MCL-1 protein abundance", "setting": "MCL-1 protein; 100 nM, without Q-VD-Oph", "result": "A (Amount of MCL-1 protein ≤25% calculated as % of DMSO control)"}, {"measurement": "MCL-1 protein degradation (Western blot, in words)", "setting": "MCL-1 protein; apoptosis not blocked", "result": "MCL-1 protein degradation"}]}
{"smiles": "CCOCCOCCOC(=O)OC(C)OC(=O)c1c(CCCOc2cccc3cc(F)ccc23)c2ccc(Cl)c(-c3c(C)nn(C)c3C)c2n1CCN1CCN(C(=O)COc2cccc3c2CN(C2CCC(=O)NC2=O)C3=O)CC1", "note": "(stereo not drawn) [Compound 101, 4-Oxo-3,5,8,11-tetraoxatridecan-2-yl 6-chloro-1-(2-(4-(2-((2-(2,6-dioxopiperidin-3-yl)-1-oxoisoindolin-4-yl)oxy)acetyl)piperazin-1-yl)ethyl)-3-(3-((6-fluoronaphthalen-1-yl)oxy)propyl)-7-(1,3,5-trimethyl-1H-pyrazol-4-yl)-1H-indole-2-carboxylate]", "values": [{"measurement": "IC50", "setting": "CRBN; [2]", "result": 63.1, "unit": "nM"}, {"measurement": "IC50", "setting": "CRBN; [3]", "result": 794, "unit": "nM"}, {"measurement": "CC50 at 24 h", "setting": "[1]", "result": "> 31600", "unit": "nM"}, {"measurement": "CC50", "setting": "MV4-11 cells", "result": "< 31.6", "unit": "nM"}]}
{"smiles": "Cc1nn(C)c(C)c1-c1c(Cl)ccc2c(CCCOc3cccc4cc(F)ccc34)c(C(=O)OCOC(=O)C(C)(C)C)n(CCN3CCN(C(=O)COc4ccc5c(c4)n(C)c(=O)n5C4CCC(=O)NC4=O)CC3)c12", "note": "(stereo not drawn) [Compound 74, (Pivaloyloxy)methyl 6-chloro-1-(2-(4-(2-((1-(2,6-dioxopiperidin-3-yl)-3-methyl-2-oxo-2,3-dihydro-1H-benzo[d]imidazol-5-yl)oxy)acetyl)piperazin-1-yl)ethyl)-3-(3-((6-fluoronaphthalen-1-yl)oxy)propyl)-7-(1,3,5-trimethyl-1H-pyrazol-4-yl)-1H-indole-2-carboxylate]", "values": [{"measurement": "IC50", "setting": "CRBN; [2]", "result": 12.6, "unit": "nM"}, {"measurement": "IC50", "setting": "CRBN; [3]", "result": 316, "unit": "nM"}, {"measurement": "CC50 at 24 h", "setting": "[1]", "result": "> 1000", "unit": "nM"}, {"measurement": "CC50", "setting": "MV4-11 cells", "result": "< 3.16", "unit": "nM"}]}
